Test results: patent US20250281462A1, “THERAPEUTICALLY EFFECTIVE ORAL ADMINISTRATION OF A 2 ARYLBENZIMIDAZOLE” (Tranquis Therapeutics, Inc., priority 2021, published 2025)

Assay: Phase 1 single ascending dose (SAD) trial, plasma pharmacokinetics (Part 1)
Details: human; for Frel AUC(0-inf)/D / Frel AUC(0-last)/D / Frel Cmax/D: dose normalized comparison to Regimen C 540 mg MC; for AUC(0-t) / AUC(0-inf) / Cmax / half-life / Tmax: male, in vivo, po, single dose; for AUC(0-t) / AUC(0-inf) / Cmax / Tmax: human plasma; for half-life: T1/2, human plasma; for Tmax: median
[1] = 90 mg SDD, fasted (Regimen G) versus fed (Regimen F)
[2] = 180 mg HME (Regimen E) compared to MC counterpart (Regimen B)
[3] = 180 mg SDD (Regimen D) compared to MC counterpart (Regimen B)
[4] = MC formulation, 60 mg to 540 mg TQS-168 (9-fold increase in dose)
[5] = MC formulation, 180 mg to 540 mg TQS-168 (3-fold increase in dose)
[6] = SDD fasted, 270 mg (Regimen H) vs 90 mg (Regimen G)
[7] = SDD fasted, 270 mg (Regimen H) vs 180 mg (Regimen D)
[8] = Regimen D 180 mg SDD, geometric mean
[9] = Regimen E 180 mg HME, comparison to Regimen D 180 mg SDD, geometric mean
[10] = Regimen E 180 mg HME, geometric mean
[11] = 60 mg, Regimen A: 60 mg TQS-168 MC oral suspension, fasted, geometric mean
[12] = 60 mg, Regimen A: 60 mg TQS-168 MC oral suspension, fasted
[13] = 90 mg, Regimen F: 90 mg TQS-168 SDD oral suspension, fed (high fat breakfast), geometric mean
[14] = 90 mg, Regimen G: 90 mg TQS-168 SDD oral suspension, fasted, geometric mean
[15] = 90 mg, Regimen G: 90 mg TQS-168 SDD oral suspension, fasted
[16] = 180 mg, Regimen B: 180 mg TQS-168 MC oral suspension, fasted, geometric mean
[17] = 180 mg, Regimen D: 180 mg TQS-168 SDD oral suspension, fasted, geometric mean
[18] = 180 mg, Regimen E: 180 mg TQS-168 HME oral suspension, fasted, geometric mean
[19] = 180 mg, Regimen B: 180 mg TQS-168 MC oral suspension, fasted
[20] = 180 mg, Regimen D: 180 mg TQS-168 SDD oral suspension, fasted
[21] = 180 mg, Regimen E: 180 mg TQS-168 HME oral suspension, fasted

In the case of `CC(C)(C)c1ccc(-c2nc3ccccc3[nH]2)cc1` [TQS-168, 2-(4-tert-butylphenyl)-1H-benzimidazole], the “increase in AUC(0-inf)” value [1] is reported as about 14%, the “increase in Cmax” value [1] is reported as “approximately 136%” and the “fold increase in geometric mean AUC(0-inf)” value [2] is reported as 2.06 fold. The “fold increase in geometric mean AUC(0-last)” value [2] was 2.14 fold, the “fold increase in geometric mean Cmax” value [2] was 2.32 fold and the “fold increase in geometric mean AUC(0-inf)” value [3] was 3.45 fold. For the same molecule, the “fold increase in geometric mean AUC(0-last)” value [3] was 3.64 fold, the “fold increase in geometric mean Cmax” value [3] was 4.11 fold and the “fold increase in AUC(0-24)” value [4] was 20.2 fold. For the same molecule, the “fold increase in AUC(0-inf)” value [4] was 21.2 fold, the “fold increase in Cmax” value [4] was 12.1 fold and the “fold increase in AUC(0-24)” value [5] was 8.8 fold. The “fold increase in AUC(0-inf)” value [5] was 9.5 fold, the “fold increase in Cmax” value [5] was 6.1 fold and the “fold increase in AUC(0-inf)” value [6] was 4.29 fold. The “fold increase in Cmax” value [6] was 2.14 fold, the “increase in AUC(0-inf)” value [7] was about 26% and the “increase in Cmax” value [7] was “approximately 8.7%”. The “Frel AUC(0-inf)/D” value [8] was 118%, the “Frel AUC(0-last)/D” value [8] was 120% and the “Frel Cmax/D” value [8] was 218%. For the same molecule, the “Frel AUC(0-inf)” value [9] was 59.6%, the “Frel AUC(0-last)” value [9] was 58.9% and the “Frel Cmax” value [9] was 56.6%. The “Frel AUC(0-inf)/D” value [10] was 70.4%, the “Frel AUC(0-last)/D” value [10] was 70.9% and the “Frel Cmax/D” value [10] was 124%. For the same molecule, the AUC(0-t) (60 mg, AUC(0-24), Regimen A: 60 mg TQS-168 MC oral suspension, fasted, geometric mean) was 71.2 ng·h/mL, the AUC(0-inf) [11] was 72.7 ng·h/mL and the AUC(0-t) (60 mg, AUC(0-last), Regimen A: 60 mg TQS-168 MC oral suspension, fasted, geometric mean) was 67.6 ng·h/mL. The Cmax [12] was 110 nM, the Cmax [11] was 26.7 ng/mL and the half-life [11] was 3.06 h. The Tmax [12] was 1 h, the AUC(0-t) (90 mg, AUC(0-24), Regimen F: 90 mg TQS-168 SDD oral suspension, fed (high fat breakfast), geometric mean) was 168 ng·h/mL and the AUC(0-t) (90 mg, AUC(0-24), Regimen G: 90 mg TQS-168 SDD oral suspension, fasted, geometric mean) was 192 ng·h/mL. For the same molecule, the AUC(0-inf) [13] was 171 ng·h/mL, the AUC(0-inf) [14] was 195 ng·h/mL and the AUC(0-t) (90 mg, AUC(0-last), Regimen F: 90 mg TQS-168 SDD oral suspension, fed (high fat breakfast), geometric mean) was 166 ng·h/mL. It also gave an AUC(0-t) (90 mg, AUC(0-last), Regimen G: 90 mg TQS-168 SDD oral suspension, fasted, geometric mean) of 189 ng·h/mL, a Cmax [13] of 47.1 ng/mL and a Cmax (90 mg, Regimen F: 90 mg TQS-168 SDD oral suspension, fed) of 190 nM. It also gave a Cmax [15] of 440 nM, a Cmax [14] of 111 ng/mL and a half-life [13] of 3.52 h. For the same molecule, the half-life [14] was 4.85 h, the Tmax (90 mg, Regimen F: 90 mg TQS-168 SDD oral suspension, fed (high fat breakfast)) was 1.5 h and the Tmax [15] was 0.5 h. The AUC(0-t) (180 mg, AUC(0-24), Regimen B: 180 mg TQS-168 MC oral suspension, fasted, geometric mean) was 163 ng·h/mL, the AUC(0-t) (180 mg, AUC(0-24), Regimen D: 180 mg TQS-168 SDD oral suspension, fasted, geometric mean) was 608 ng·h/mL and the AUC(0-t) (180 mg, AUC(0-24), Regimen E: 180 mg TQS-168 HME oral suspension, fasted, geometric mean) was 358 ng·h/mL. It also gave an AUC(0-inf) [16] of 180 ng·h/mL, an AUC(0-inf) [17] of 621 ng·h/mL and an AUC(0-inf) [18] of 370 ng·h/mL. For the same molecule, the AUC(0-t) (180 mg, AUC(0-last), Regimen B: 180 mg TQS-168 MC oral suspension, fasted, geometric mean) was 168 ng·h/mL, the AUC(0-t) (180 mg, AUC(0-last), Regimen D: 180 mg TQS-168 SDD oral suspension, fasted, geometric mean) was 611 ng·h/mL and the AUC(0-t) (180 mg, AUC(0-last), Regimen E: 180 mg TQS-168 HME oral suspension, fasted, geometric mean) was 360 ng·h/mL. The Cmax [19] was 210 nM, the Cmax [16] was 53.1 ng/mL and the Cmax [20] was 870 nM. It also gave a Cmax [17] of 218 ng/mL, a Cmax [21] of 490 nM and a Cmax [18] of 123 ng/mL. For the same molecule, the half-life [16] was 7.36 h, the half-life [17] was 5.64 h and the half-life [18] was 7.25 h. It also gave a Tmax [19] of 1 h, a Tmax [20] of 1 h and a Tmax [21] of 1.5 h.
